In the oligonucleotide strings, read from the 5' end, every base follows the letter of its sugar. An asterisk marks phosphorothioate; unmarked linkages are phosphodiester. Other units and linkages are bracketed, terminal groups are in braces. A string of capitals states the bases alone. d = 2'-deoxy (DNA)
The substances below were run on human preadipocyte (assay: Effect of antisense compound on adipocyte proliferation and differentiation (Adipo Red)). Details: 300 nM; human preadipocyte.
Assay type: cell-based
Description: First, human preadipocyte (Human Preadipocytes-sq POIETICS #PT-5020, Sanko Junyaku Co., Ltd.) was suspended in growth medium (#PT-8200, Sanko Junyaku Co., Ltd.), and after adding the suspension to a 96 well culture plate at 1×10^4 cells/well/100 μL, the cells were cultured overnight at 37° C. in the presence of 5% CO2.
The preadipocyte was cultured overnight, and after washing the preadipocyte twice with serum-free DMEM, Opti-MEM was added at 80 μL/well.
Gene transfection reagent Lipofectin was diluted with Opti-MEM to 20 μg/mL, and the dilution was allowed to stand at room temperature for 30 minutes. Next, the antisense oligodeoxynucleotide synthesized as described above was heated at 90° C. for 3 minutes, and after quenching on ice, diluted with Opti-MEM to a concentration 10 times higher than the final concentration. Equal amounts of the Lipofectin in Opti-MEM and the antisense oligodeoxynucleotide in Opti-MEM were mixed, and the mixture was incubated at room temperature for 15 minutes and added to 96 well plate at 20 μL/well. After incubating at 37° C. for 4 hours in the presence of 5% CO2, it was used for examination as described below.
The differentiation medium was prepared by using growth medium (#PT-8200, Sanko Junyaku Co., Ltd.) and supplement kit (PGM Single Quots, #PT-9500, Sanko Junyaku Co., Ltd.) according to the instruction of the kit. Next, the culture supernatant containing the Lipofectin was removed from the 96 well plate prepared in the above (2), and the plate was washed twice with serum-free DMEM, and the differentiation medium prepared as described above was added at 100 μL/well. The plate was then incubated at 37° C. for 5 days to 15 days in the presence of 5% CO2.
Accumulation of the neutral fat in the adipocyte was determined by fluorometry using Adipo Red stain.
After taking the 96 well plate out of the CO2 incubator, the plate was allowed to stand until it reached room temperature. The plate was centrifuged at 300 g (1200 rpm) for 10 minutes at room temperature to remove the medium. Next, after gently washing with PBS (SIGMA) at 200 μL/well, PBS was added to the well at 200 μL/well. Next, Adipo Red Assay Reagent (Adipo Red, Cat. #PT-7009, Lot.3F0497, A Cambrex Company) was added at 5 μL/well, and the plate was allowed to stand at room temperature for at least 10 minutes to thereby stain the neutral fat accumulated in the adipocyte. The fat accumulation was determined by measuring fluorescence intensity in a fluorometer at an excitation wavelength of 485 nm and an emission wavelength of 535 nm.
The suppression rate of the adipocyte differentiation was calculated by converting the fluorescence intensity of the well transfected with the antisense compound in relation to the fluorescence intensity of the well without transfection with the antisense compound which was assumed as 100%. The result was rated “+” when the suppression rate was at least 25%, “++” when the suppression rate was at least 50%, and “+++” when the suppression rate was at least 75%.
For “5 (dG*dT*dT*dT*dG*dG*dC*dT*dT*dA*dC*dA*dG*dG*dT*dC*dC*dC*dC*dT) [compound 5]”, the “Supression of adipose differentiation 300 nM” value was “++ (“++” when the suppression rate was at least 50%)”.

Same assay, conditions: human adipocyte differentiation
“H135 + 15: gggtctgctgatgtcaacat (GGGTCTGCTGATGTCAACAT; antisense; DNA, all phosphorothioate, methylation of C not given here)” was tested, and the “Score (suppressing the human adipocyte differentiation)” value was “+ (“+” when the suppression rate was at least 25%)”.

The substances below were run on human meltrin α RNA (assay: Suppression of human meltrin α expression by antisense compound in RD cell (real time PCR)). Details: 50 nM; RD cell.
Assay type: cell-based
How it was run: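 RD cells transfected with heat-denatured antisense oligodeoxynucleotide plus Lipofectin in Opti-MEM for 4 h at 37° C, then cultured 18 h. Meltrin α RNA quantified by TaqMan RT-PCR against plasmid standard curve, GAPDH-corrected; suppression vs untreated cells, rated +/++/+++ for ≥30/50/70%.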
“5 (dG*dT*dT*dT*dG*dG*dC*dT*dT*dA*dC*dA*dG*dG*dT*dC*dC*dC*dC*dT) [compound 5]” was tested, and the “Supression of expression, 50 nM” value was “++ (“++” when the suppression rate was at least 50%)”.

Same assay, conditions: 50 nM; RD cell; corrected by GAPDH
For “H196: agggaggtggcggtttgcag (dA*dG*dG*dG*dA*dG*dG*dT*dG*dG*dC*dG*dG*dT*dT*dT*dG*dC*dA*dG; antisense)”, the “suppression rate of expression, 50 nM” value was “+ (“+” when the suppression rate was at least 30%)”. “H219: ttcaaggggatgctgcccaa (dT*dT*dC*dA*dA*dG*dG*dG*dG*dA*dT*dG*dC*dT*dG*dC*dC*dC*dA*dA; antisense)” was tested, and the “suppression rate of expression, 50 nM” value was “+ (“+” when the suppression rate was at least 30%)”.

Same assay, conditions: 200 nM; RD cell; corrected by GAPDH
For “H178: ctccctgaaagccaaacaca (dC*dT*dC*dC*dC*dT*dG*dA*dA*dA*dG*dC*dC*dA*dA*dA*dC*dA*dC*dA; antisense)”, the “suppression rate of expression, 200 nM” value was “+ (“+” when the suppression rate was at least 30%)”. With “H179: gttgtcaaggggcacagggc (dG*dT*dT*dG*dT*dC*dA*dA*dG*dG*dG*dG*dC*dA*dC*dA*dG*dG*dG*dC; antisense)” the “suppression rate of expression, 200 nM” value was “++ (“++” when the suppression rate was at least 50%)”. “H180: ccctgggagcctgcctgcca (dC*dC*dC*dT*dG*dG*dG*dA*dG*dC*dC*dT*dG*dC*dC*dT*dG*dC*dC*dA; antisense)” was tested, and the “suppression rate of expression, 200 nM” value was “++ (“++” when the suppression rate was at least 50%)”. With “H181: gccagatttctcccaggtgt (dG*dC*dC*dA*dG*dA*dT*dT*dT*dC*dT*dC*dC*dC*dA*dG*dG*dT*dG*dT; antisense)” the “suppression rate of expression, 200 nM” value was “++ (“++” when the suppression rate was at least 50%)”. For “H182: ccaaagcttcctggccagaa (dC*dC*dA*dA*dA*dG*dC*dT*dT*dC*dC*dT*dG*dG*dC*dC*dA*dG*dA*dA; antisense)”, the “suppression rate of expression, 200 nM” value was “++ (“++” when the suppression rate was at least 50%)”. For “H183: gtctgcaacccaggttctca (dG*dT*dC*dT*dG*dC*dA*dA*dC*dC*dC*dA*dG*dG*dT*dT*dC*dT*dC*dA; antisense)”, the “suppression rate of expression, 200 nM” value was “++ (“++” when the suppression rate was at least 50%)”. For “H184: ggctacaccttaagattcct (dG*dG*dC*dT*dA*dC*dA*dC*dC*dT*dT*dA*dA*dG*dA*dT*dT*dC*dC*dT; antisense)”, the “suppression rate of expression, 200 nM” value was “+ (“+” when the suppression rate was at least 30%)”. “H187: ggctggtcagctcagggtca (dG*dG*dC*dT*dG*dG*dT*dC*dA*dG*dC*dT*dC*dA*dG*dG*dG*dT*dC*dA; antisense)” was tested, and the “suppression rate of expression, 200 nM” value was “+++ (“+++” when the suppression rate was at least 70%)”. With “H188: ccccttccaaacatgctcac (dC*dC*dC*dC*dT*dT*dC*dC*dA*dA*dA*dC*dA*dT*dG*dC*dT*dC*dA*dC; antisense)” the “suppression rate of expression, 200 nM” value was “+ (“+” when the suppression rate was at least 30%)”. With “H189: gccttgagtgacactacaga (dG*dC*dC*dT*dT*dG*dA*dG*dT*dG*dA*dC*dA*dC*dT*dA*dC*dA*dG*dA; antisense)” the “suppression rate of expression, 200 nM” value was “+ (“+” when the suppression rate was at least 30%)”. For “H195: tgcctgggcagtaggtttct (dT*dG*dC*dC*dT*dG*dG*dG*dC*dA*dG*dT*dA*dG*dG*dT*dT*dT*dC*dT; antisense)”, the “suppression rate of expression, 200 nM” value was “++ (“++” when the suppression rate was at least 50%)”. In the case of “H196: agggaggtggcggtttgcag (dA*dG*dG*dG*dA*dG*dG*dT*dG*dG*dC*dG*dG*dT*dT*dT*dG*dC*dA*dG; antisense)”, the “suppression rate of expression, 200 nM” value is reported as “+++ (“+++” when the suppression rate was at least 70%)”. In the case of “H197: tgctcagctccaagcagtat (dT*dG*dC*dT*dC*dA*dG*dC*dT*dC*dC*dA*dA*dG*dC*dA*dG*dT*dA*dT; antisense)”, the “suppression rate of expression, 200 nM” value is reported as “++ (“++” when the suppression rate was at least 50%)”. For “H210: ccccatagagaaggttcttt (dC*dC*dC*dC*dA*dT*dA*dG*dA*dG*dA*dA*dG*dG*dT*dT*dC*dT*dT*dT; antisense)”, the “suppression rate of expression, 200 nM” value was “++ (“++” when the suppression rate was at least 50%)”. For “H217: ggaagttgataagcaagttg (dG*dG*dA*dA*dG*dT*dT*dG*dA*dT*dA*dA*dG*dC*dA*dA*dG*dT*dT*dG; antisense)”, the “suppression rate of expression, 200 nM” value was “+++ (“+++” when the suppression rate was at least 70%)”. With “H219: ttcaaggggatgctgcccaa (dT*dT*dC*dA*dA*dG*dG*dG*dG*dA*dT*dG*dC*dT*dG*dC*dC*dC*dA*dA; antisense)” the “suppression rate of expression, 200 nM” value was “+++ (“+++” when the suppression rate was at least 70%)”. “H221: gaaacatggctccctagtca (dG*dA*dA*dA*dC*dA*dT*dG*dG*dC*dT*dC*dC*dC*dT*dA*dG*dT*dC*dA; antisense)” was tested, and the “suppression rate of expression, 200 nM” value was “+ (“+” when the suppression rate was at least 30%)”. With “H225: aagacagaggcatcatggca (dA*dA*dG*dA*dC*dA*dG*dA*dG*dG*dC*dA*dT*dC*dA*dT*dG*dG*dC*dA; antisense)” the “suppression rate of expression, 200 nM” value was “+++ (“+++” when the suppression rate was at least 70%)”. “H229: aaagaaggctttctcataaa (dA*dA*dA*dG*dA*dA*dG*dG*dC*dT*dT*dT*dC*dT*dC*dA*dT*dA*dA*dA; antisense)” was tested, and the “suppression rate of expression, 200 nM” value was “+ (“+” when the suppression rate was at least 30%)”. “H230: taggaaaactgttgacccca (dT*dA*dG*dG*dA*dA*dA*dA*dC*dT*dG*dT*dT*dG*dA*dC*dC*dC*dC*dA; antisense)” was tested, and the “suppression rate of expression, 200 nM” value was “++ (“++” when the suppression rate was at least 50%)”. With “H233: agttttgttttctggaaggc (DNA dA*dG*dT*dT*dT*dT*dG*dT*dT*dT*dT*dC*dT*dG*dG*dA*dA*dG*dG*dC; antisense)” the “suppression rate of expression, 200 nM” value was “+ (“+” when the suppression rate was at least 30%)”. In the case of “H234: acaccgggaaagtgaaatgc (DNA dA*dC*dA*dC*dC*dG*dG*dG*dA*dA*dA*dG*dT*dG*dA*dA*dA*dT*dG*dC; antisense)”, the “suppression rate of expression, 200 nM” value is reported as “++ (“++” when the suppression rate was at least 50%)”. With “H235: ttgcctagatacagtgggga (DNA dT*dT*dG*dC*dC*dT*dA*dG*dA*dT*dA*dC*dA*dG*dT*dG*dG*dG*dG*dA; antisense)” the “suppression rate of expression, 200 nM” value was “++ (“++” when the suppression rate was at least 50%)”. “H237: gtgtcacgtgtttagtttat (DNA dG*dT*dG*dT*dC*dA*dC*dG*dT*dG*dT*dT*dT*dA*dG*dT*dT*dT*dA*dT; antisense)” was tested, and the “suppression rate of expression, 200 nM” value was “+ (“+” when the suppression rate was at least 30%)”. In the case of “H239: ttggaatgtattagagctgg (DNA dT*dT*dG*dG*dA*dA*dT*dG*dT*dA*dT*dT*dA*dG*dA*dG*dC*dT*dG*dG; antisense)”, the “suppression rate of expression, 200 nM” value is reported as “+ (“+” when the suppression rate was at least 30%)”. For “H240: acagatgcatgctatacgag (DNA dA*dC*dA*dG*dA*dT*dG*dC*dA*dT*dG*dC*dT*dA*dT*dA*dC*dG*dA*dG; antisense)”, the “suppression rate of expression, 200 nM” value was “++ (“++” when the suppression rate was at least 50%)”. In the case of “H243: cagcagtattattttccagc (DNA dC*dA*dG*dC*dA*dG*dT*dA*dT*dT*dA*dT*dT*dT*dT*dC*dC*dA*dG*dC; antisense)”, the “suppression rate of expression, 200 nM” value is reported as “+ (“+” when the suppression rate was at least 30%)”. “H247: aacctttttaatagtatata (DNA dA*dA*dC*dC*dT*dT*dT*dT*dT*dA*dA*dT*dA*dG*dT*dA*dT*dA*dT*dA; antisense)” was tested, and the “suppression rate of expression, 200 nM” value was “+ (“+” when the suppression rate was at least 30%)”. In the case of “H249: aaaaagacaatgcccacgta (DNA dA*dA*dA*dA*dA*dG*dA*dC*dA*dA*dT*dG*dC*dC*dC*dA*dC*dG*dT*dA; antisense)”, the “suppression rate of expression, 200 nM” value is reported as “++ (“++” when the suppression rate was at least 50%)”. With “H250: atctaaggatttgggcatct (DNA dA*dT*dC*dT*dA*dA*dG*dG*dA*dT*dT*dT*dG*dG*dG*dC*dA*dT*dC*dT; antisense)” the “suppression rate of expression, 200 nM” value was “+ (“+” when the suppression rate was at least 30%)”. For “H251: aggaagggctaacatgccag (DNA dA*dG*dG*dA*dA*dG*dG*dG*dC*dT*dA*dA*dC*dA*dT*dG*dC*dC*dA*dG; antisense)”, the “suppression rate of expression, 200 nM” value was “+++ (“+++” when the suppression rate was at least 70%)”.

— patent US20080292619A1, “Pharmaceutical Composition Containing Meltrin Antagonist” (MOCHIDA PHARMACEUTICAL CO., LTD., priority 2004, published 2008)
